{
  "source": "paper PMC6277198",
  "about": "“Molecular basis for activation of lecithin:cholesterol acyltransferase by a compound that increases HDL cholesterol” (eLife, 2018)",
  "origin": "cited, not measured here",
  "key": {"[1]": {"tested_on": "mice and hamsters", "parameters": "method as in Chen et al., 2012; Freeman et al., 2017; Kayser et al., 2013", "details": "ref Chen et al., 2012, Freeman et al., 2017, Kayser et al., 2013; cited from earlier work"}, "[2]": {"tested_on": "LCAT", "parameters": "method as in Kobayashi et al., 2015a; Kobayashi et al., 2015b", "details": "removal of the C4 hydroxyl group, ref Kobayashi et al., 2015a, 2015b; cited from earlier work"}, "[3]": {"parameters": "method as in Shamburek et al., 2016b", "details": "ref Shamburek et al., 2016b; cited from earlier work"}},
  "data": [
    {"compound": "CCSc1nnc(Sc2nccnc2C#N)s1", "note": "[Compound A, 3-(5-(ethylthio)−1,3,4-thiadiazol-2-ylthio)pyrazine-2-carbonitrile]", "values": [
      {"measurement": "plasma CE and HDL-C levels", "setting": "[1]", "value": "increases"}
    ]},
    {"compound": "O=C1CC(C(F)(F)F)c2c(C3CCN(c4cnc(C(F)(F)F)cn4)CC3)n[nH]c2N1", "note": "(stereo not drawn) [compound 4, 4-(trifluoromethyl)−3-(1-(5-(trifluoromethyl)pyrazin-2-yl)piperidin-4-yl)−1,4,5,7-tetrahydro-6H-pyrazolo[3,4-b]pyridin-6-one]", "values": [
      {"measurement": "drop in potency compared with 2", "setting": "[2]", "value": "~ 6 fold"}
    ]},
    {"compound": "rhLCAT: Recombinant human LCAT, tested in phase I and as enzyme replacement therapy", "values": [
      {"measurement": "safety in a phase I study", "setting": "[3]", "value": "safe"}
    ]}
  ]
}
